Reference: publication PMC9743095 (Journal of Medicinal Chemistry, 2022)

Columns and labels:
Experiment in all cases: cells
Format in all cases: cell-based
CCRF-CEM = details: Homo sapiens, 72 h; for CC50: read-out: LC50; for Emax: read-out: MI%
Description: (§1) The assay was contracted and carried out by WuXi AppTec (Shanghai) Co., Ltd. The tumor cell lines CCRF-CEM, HL-60, KG-1, MOLT-4, K562, MV4-11, THP-1, HEL92.1.7, NCI-H929, RPMI-8226, Jurkat, Z138, RL, HS445, HepG2, MCF-7, Bx-PC-3, HT29, MIA PaCa-2, and SW620 were seeded at cell densities of […] 10^3 cells/well in a 96-well plate the day before drug incubation. Then, the plates were incubated for 72 h with the different concentrations of compound to be tested. After the incubation period, 50 μL of MTS was added and the tumor cells were incubated for 4 h at 37 °C. The data were read and collected by a Spectra Max 340 absorbance microplate reader. The compounds were tested in duplicate with nine serial concentrations (3.16-fold titrations with 198 μM as the highest concentration), and the data were analyzed by XLfit software.

HL-60 = details: Homo sapiens, HL-60, 72 h; for CC50: read-out: LC50; for Emax: read-out: MI%
Description: as §1

HepG2 = details: Homo sapiens, HepG2, 72 h; for CC50: read-out: LC50; for Emax: read-out: MI%
Description: as §1

K562 = details: Homo sapiens, K562, 72 h; for CC50: read-out: LC50; for Emax: read-out: MI%
Description: as §1

KG-1 = details: Homo sapiens, KG-1, 72 h, read-out: LC50
Description: as §1

MCF-7 = details: Homo sapiens, MCF7, 72 h; for CC50: read-out: LC50; for Emax: read-out: MI%
Description: as §1

MOLT-4 = details: Homo sapiens, MOLT-4, 72 h; for CC50: read-out: LC50; for Emax: read-out: MI%
Description: as §1

BxPC-3 = tested on: BxPC-3
Description: as §1

HEL92.1.7 = tested on: HEL92.1.7
Description: as §1

HS445 = tested on: HS445
Description: as §1

HT29 = tested on: HT29
Description: as §1

Jurkat = details: Jurkat
Description: as §1

MIA PaCa-2 = tested on: MIA PaCa-2
Description: as §1

MV4-11 = tested on: MV4-11
Description: as §1

NCI-H929 = tested on: NCI-H929
Description: as §1

RL = tested on: RL
Description: as §1

RPMI-8226 = tested on: RPMI-8226
Description: as §1

SW620 = tested on: SW620
Description: as §1

THP-1 = tested on: THP-1
Description: as §1

[1] = Homo sapiens, 72 h, read-out: LC50
[2] = maximum inhibitory effect over concentration range

C[C@H](NP(=O)(Oc1cccc2ccccc12)O[C@@H]1C[C@@H](COP(=O)(N[C@H](C)C(=O)OCc2ccccc2)Oc2cccc3ccccc23)O[C@H]1n1cnc2c(N)ncnc21)C(=O)OCc1ccccc1 (stereo partly shown) [Compound 5b]
CC50 (CCRF-CEM): 27.1 µM | Emax (CCRF-CEM): 99% | CC50 (HL-60): 78.6 µM | Emax (HL-60): 99% | CC50 (HepG2): 30.2 µM | Emax (HepG2): 90% | CC50 (K562): 25.4 µM | Emax (K562): 87% | CC50 (KG-1): 66.3 µM | CC50 (MCF-7): 5.05 µM | Emax (MCF-7): 99% | CC50 (MOLT-4): 14.8 µM | Emax (MOLT-4): 100%

C[C@H](N[P@@](=O)(OC[C@@H]1C[C@@H](O)[C@H](n2cnc3c(N)ncnc32)O1)Oc1ccccc1)C(=O)OCc1ccccc1 [Rp-7a]
MI% (BxPC-3; BxPC-3, maximum inhibitory effect over concentration range): 71% | CC50 (BxPC-3; Homo sapiens, BXPC-3, 72 h, read-out: LC50): 74 µM | CC50 (CCRF-CEM): 1.86 µM | Emax (CCRF-CEM): 97% | MI% (HEL92.1.7; HEL92.1.7, maximum inhibitory effect over concentration range): 98% | CC50 (HEL92.1.7; Homo sapiens, HEL 92.1.7, 72 h, read-out: LC50): 11 µM | CC50 (HL-60): 8.7 µM | Emax (HL-60): 100% | MI% (HS445; HS445, maximum inhibitory effect over concentration range): 99% | CC50 (HS445; Homo sapiens, Hs 445, 72 h, read-out: LC50): 42 µM | MI% (HT29; HT29, maximum inhibitory effect over concentration range): 97% | CC50 (HT29; Homo sapiens, HT-29, 72 h, read-out: lC50): 16 µM | CC50 (HepG2): 32 µM | Emax (HepG2): 78% | CC50 (Jurkat; [1]): 2.82 µM | MI% (Jurkat; [2]): 97% | CC50 (K562): 2.6 µM | Emax (K562): 95% | CC50 (KG-1): 14 µM | CC50 (MCF-7): 2.94 µM | Emax (MCF-7): 97% | CC50 (MIA PaCa-2; Homo sapiens, MIA PaCa-2, 72 h, read-out: LC50): 14 µM | MI% (MIA PaCa-2; MIA PaCa-2, maximum inhibitory effect over concentration range): 96% | CC50 (MOLT-4): 0.57 µM | Emax (MOLT-4): 98% | CC50 (MV4-11; Homo sapiens, MV4-11, 72 h, read-out: LC50): 0.98 µM | MI% (MV4-11; MV4-11, maximum inhibitory effect over concentration range): 100% | CC50 (NCI-H929; Homo sapiens, NCI-H929, 72 h, read-out: LC50): 19 µM | MI% (NCI-H929; NCI-H929, maximum inhibitory effect over concentration range): 97% | CC50 (RL; [1]): 4 µM | MI% (RL; [2]): 96.8% | CC50 (RPMI-8226; Homo sapiens, RPMI-8226, 72 h, read-out: LC50): 25 µM | MI% (RPMI-8226; RPMI-8226, maximum inhibitory effect over concentration range): 90.8% | CC50 (SW620; Homo sapiens, SW-620, 72 h, read-out: LC50): 29 µM | MI% (SW620; SW620, maximum inhibitory effect over concentration range): 82% | CC50 (THP-1; Homo sapiens, THP-1, 72 h, read-out: LC50): 35 µM | MI% (THP-1; THP-1, maximum inhibitory effect over concentration range): 91%

C[C@H](NP(=O)(Oc1ccccc1)O[C@@H]1C[C@@H](CO)O[C@H]1n1cnc2c(N)ncnc21)C(=O)OCc1ccccc1 (stereo partly shown) [Compound 6a]
CC50 (CCRF-CEM): 17.6 µM | Emax (CCRF-CEM): 99% | CC50 (HL-60): 31.1 µM | Emax (HL-60): 80% | CC50 (HepG2): 83.1 µM | Emax (HepG2): 55% | CC50 (K562): 26.9 µM | Emax (K562): 89% | CC50 (KG-1): 79.4 µM | CC50 (MCF-7): 5.06 µM | Emax (MCF-7): 94% | CC50 (MOLT-4): 18.6 µM | Emax (MOLT-4): 100%

C[C@H](NP(=O)(Oc1ccccc1)O[C@@H]1C[C@@H](COP(=O)(N[C@H](C)C(=O)OCc2ccccc2)Oc2ccccc2)O[C@H]1n1cnc2c(N)ncnc21)C(=O)OCc1ccccc1 (stereo partly shown) [Compound 5a]
CC50 (CCRF-CEM): 64.8 µM | Emax (CCRF-CEM): 65% | CC50 (HL-60): 143 µM | Emax (HL-60): 57% | CC50 (HepG2): 85.5 µM | CC50 (K562): 26.3 µM | Emax (K562): 78% | CC50 (KG-1): 112 µM | CC50 (MCF-7): 10.3 µM | Emax (MCF-7): 97% | CC50 (MOLT-4): 62.9 µM | Emax (MOLT-4): 75%

C[C@H](NP(=O)(N[C@@H](C)C(=O)OCc1ccccc1)OC[C@@H]1C[C@@H](O)[C@H](n2cnc3c(N)ncnc32)O1)C(=O)OCc1ccccc1 [Compound 9]
CC50 (CCRF-CEM): 7.03 µM | Emax (CCRF-CEM): 100% | CC50 (HL-60): 16.5 µM | Emax (HL-60): 100% | CC50 (HepG2): 157 µM | Emax (HepG2): 55% | CC50 (K562): 24.3 µM | Emax (K562): 97% | CC50 (KG-1): 34.1 µM | CC50 (MCF-7): 13 µM | Emax (MCF-7): 97% | CC50 (MOLT-4): 3.52 µM | Emax (MOLT-4): 100%
